One experiment relates to Candida albicans. Description: Antifungal activity against Candida albicans NCPF 400034 assessed as inhibition of fungal growth incubated for 48 hrs. The experiment is classed as functional.
The test system of experiment [1] is Kluyveromyces marxianus. Description: Antifungal activity against Candida keyfer […] 410004 assessed as inhibition of fungal growth incubated for 48 hrs. The experiment is classed as functional.
The next experiment deals with Cryptococcus neoformans. Nature of the experiment: Antifungal activity against Cryptococcus neoformans NCPF 250316 assessed as inhibition of fungal growth incubated for 48 hrs. The format is functional.
The test system of another experiment is Aspergillus niger. Nature of the experiment: Antifungal activity against Aspergillus niger assessed as inhibition of fungal growth incubated for 48 hrs. The format is functional.
A further experiment deals with Neurospora crassa. Description: Antifungal activity against Neurospora crassa assessed as inhibition of fungal growth incubated for 48 hrs. The format is functional.
Experiment [2] concerns Kluyveromyces marxianus. Description: Synergetic antifungal activity against Candida keyfer […] 410004 assessed as fractional inhibitory concentration index incubated for 24 hrs in the presence of amphotericin B by checkerboard microdilution method. The format is functional.
Another experiment concerns CCRF-CEM. Nature of the experiment: Antiproliferative activity against human CCRF-CEM cells assessed as inhibition of cell growth incubated for 72 hrs by MTT assay. The experiment is classed as functional, cell-based. (Formazan colour is commonly taken as a measure of viable cells.)
In a further experiment the test system is K562. Description: Antiproliferative activity against human K562 cells assessed as inhibition of cell growth incubated for 72 hrs by MTT assay. The experiment is classed as functional, cell-based. The conditions noted are these: K562, 72 h.
The subject of another experiment is A549. Nature of the experiment: Antiproliferative activity against human A549 cells assessed as inhibition of cell growth incubated for 72 hrs by MTT assay. The experiment is classed as functional, cell-based. The conditions noted are these: A549, 72 h.
Another experiment concerns HCT-116. Description: Antiproliferative activity against human HCT-116 cells assessed as inhibition of cell growth incubated for 72 hrs by MTT assay. The conditions noted are these: HCT-116, 72 h. The format is functional, cell-based.
The subject of the next experiment is CEM-DNR. Description: Antiproliferative activity against human CEM-DNR cells assessed as inhibition of cell growth incubated for 72 hrs by MTT assay. The format is functional, cell-based.

Each structure is given as a SMILES string. ≈ marks a conversion by molar mass, not a printed value.

One may read the MIC as the smallest concentration in the dilution series that meets the test's criterion for growth inhibition. For the molecule `c1ccc([Se]Cc2cn3cccnc3n2)cc1`, the MIC was 36 µg/mL (≈ 125 µM) in the experiment with Candida albicans; greater than 36 µg/mL in the experiment on Kluyveromyces marxianus [1]; greater than 36 µg/mL with Cryptococcus neoformans; greater than 36 µg/mL in the experiment on Aspergillus niger; 18 µg/mL (≈ 62.5 µM) with Neurospora crassa. The “fractional inhibitory concentration index (FICI)” value in the experiment with Kluyveromyces marxianus [2] turned out to be 3.6.

For orientation: IC50 means the concentration that inhibits the measured activity by half. Turning to `N#Cc1ccc(-c2c[nH]c(=O)n3ccnc23)cc1`, the IC50 stood at 1.45 µM in the experiment on CCRF-CEM; 17.7 µM in the experiment on K562; 5.07 µM in the experiment on A549; 42.5 µM in the experiment on HCT-116; 18.8 µM with CEM-DNR.

Source of the values: ChEMBL document CHEMBL5532697, “Imidazopyrimidine: from a relatively exotic scaffold to an evolving structural motif in drug discovery” (RSC Med Chem, 2024).
